Tested on: voltage-gated calcium current in HN2A12 cells
Assay type: cell-based, murine

Molecule	inhibition of the voltage-gated calcium current	block of the calcium current (N-type part)
[Cl][Cd][Cl] [CdCl2]	completely inhibited	–
ω-conotoxin-GVIA	–	about 38%

From patent publication US20070190039A1, “Novel cell lines, and methods of preparation and use thereof” (priority 2003, published 2007)
